Assay results reported in publication PMC6403019, “Nanoformulated Antiretroviral Therapy Attenuates Brain Metabolic Oxidative Stress” (Molecular Neurobiology, 2018).

Experiments:
[1] = system: mouse embryonic neuron cells; assay: ROS levels after TBHP challenge in neurons; assay type: cell-based; settings: 100 μM drug, then 10 μM TBHP; normalized with TBHP-positive control
Description: (§1) ROS were measured in neuron and MDM cells with the probe DCFDA (dichlorofluorescin diacetate, abcam, Cambridge, MA). Cells were seeded on black, clear-bottomed 96-well plates. After cells were pre-cultured with different treatments, the media were removed and the cells were washed with 1× buffer (supplied with the kit). Cells were incubated for 45 min in 1× buffer containing 25 μM DCFDA at 37 °C. DCF production was measured by fluorescence spectroscopy with excitation wavelength at 485 nm and emission wavelength at 535 nm. In this study, the cells were treated with increasing concentrations of free DTG, nano-DTG, and various vehicle, positive, and negative controls to compare ROS generation and lactate dehydrogenase (LDH)-based cytotoxicity generated by such treatments. […] TBHP (tert-butyl hydroperoxide; 10 μM) and PBS were used as the positive and negative controls, respectively. The vehicle control for nanoformulated DTG was composed of poloxamer micelles without the drug. […] Specifically, cells (both MDM and neurons) were treated for 2 h with various vehicle or drug concentrations. Then, cells were washed and new media was added, and after 24-h culture, cells were challenged with TBHP for 2 h, followed by fluorescence-based ROS measurements.

[2] = system: mouse embryonic neuron cells; assay: ROS formation (DCFDA) in neurons; assay type: cell-based; settings: administered at 100 and 500 μM
Description: as §1

neuron and MDM cells = assay: LDH-based cytotoxicity; assay type: cell-based; settings: 500 μM in the dosing medium
[3] = set-up: method as in PMID 21716073, PMID 23824675; settings: HIV-infected adults, ten doses of monotherapy with 50 mg once daily DTG tablets; cited from earlier work
[4] = system: mouse embryonic neuron cells; assay: Cellular uptake of DTG in neurons (LC-MS/MS MRM); assay type: in vitro ADME; settings: treated with 100 μM
From the text: Cycle time was 150 ms for each transition.

brain metabolome = assay: Brain region-specific global metabolomics (LC-MS) after DTG injections; assay type: in vivo, mice (Balb/cJ); settings: five brain regions, Fig. 4
Description: Brain tissue subregions were extracted as previously described. Briefly, 0.6 mL of cold methanol:H2O (4:1, v/v) were added per 10 mg tissue (solvent volume was adjusted accordingly to tissue weight). Homogenization was performed with glass beads in a homogenizer and sonicated in an ice bath for 10 min. The mixtures were then transferred to 1.5-mL Eppendorf vials and rinsed with additional 200 μL extraction solvent. To precipitate proteins, the samples were incubated for 1 h at − 20 °C, followed by a 15-min centrifugation at 13,000 rpm at 4 °C. The resulting supernatant was evaporated to dryness in a vacuum concentrator. The dry extracts were then reconstituted in acetonitrile:H2O (1:1, v/v), normalized by tissue weight, sonicated for 10 min, and centrifuged for 15 min at 13000 rpm and 4 °C to remove insoluble debris. The supernatants were transferred to HPLC vials and stored at − 80 °C prior to LC-MS analysis.
The extracts were analyzed on a 6550 iFunnel QTOF mass spectrometer coupled with a 1290 UPLC system (Agilent Technologies, Santa Clara, CA). For global metabolomics, a Luna Aminopropyl, 3 μm, 150 mm × 2.0 mm I.D. HILIC column (Phenomenex, Torrance, CA) was used. […]
LC-MS data were converted to mzXML files using Masshunter Acquisition Software (Agilent Masshunter 6.0B). […] The relative quantification of metabolite features was based on extracted ion chromatogram areas. […]

human MDM [5] = assay: ROS levels after TBHP challenge in MDM; assay type: cell-based; settings: 10 to 100 μM drug, then 10 μM TBHP
Description: as §1

human MDM [6] = assay: ROS formation (DCFDA) in MDM; assay type: cell-based; settings: 100 μM
Description: as §1

[7] = Plasma concentration after intramuscular injection of free DTG; assay type: in vivo, mice; settings: single free DTG injection, 45 mg/kg

C[C@@H]1CCO[C@H]2Cn3cc(C(=O)NCc4ccc(F)cc4F)c(=O)c(O)c3C(=O)N12 [free DTG, dolutegravir]
ROS fold change after TBHP challenge, neurons [1]: 4
ROS fold change vs vehicle control, neurons [2]: up to 1.5 times of control
cytotoxicity (LDH-based) (neuron and MDM cells): did not show significant cytotoxicity
steady-state plasma concentration (Cmax) [3]: 3340 ng/mL
DTG concentration in neurons [4]: 168 ng/10^6 cells
changes of oxidative stress metabolites (ascorbic acid, threonate, GSH, GSSG) vs controls (brain metabolome): statistically significant (p value < 0.05) with the exception of ascorbic acid levels observed in the H
ROS response to TBHP challenge, MDM (human MDM [5]): induced ROS formation in a dose-response at higher concentrations (60 to 100 μM)
ROS fold change vs vehicle control, MDM (human MDM [6]): 0.8 times
plasma concentration [7]: up to 11.29 μg/mL
